These results are taken from patent US11267810B2, “Aminopyrimidine compound and composition comprising same and use thereof” (Shenzhen TargetRx, Inc., priority 2017, dated 2022).

Data set [1] deals with lung cancer cells NCI-H1975 (L858R/T790M). Briefly: MTS cell viability assay, NCI-H1975. It is filed as cell-based. Particulars: Homo sapiens, 72 hours. The method, then: (§1) Cell line: Skin cancer cell line A431 (purchased from the American Type Culture Collection (ATCC)); lung cancer cells NCI-H1975 (purchased from the American Type Culture Collection (ATCC)) and HCC827 (purchased from the American Type Culture Collection (ATCC)). All of the cells were cultured in RPMI1640 medium containing 10% fetal bovine serum, 100 U/ml penicillin, and 100 μg/ml streptomycin.
(§2) Reagents and materials: RPMI-1640 (GIBCO, Cat. No. A10491-01); fetal bovine serum (GIBCO, Cat. No. 10099141); 0.25% trypsin-EDTA (GIBCO, Cat. No. 25200); penicillin-streptomycin, liquid (GIBCO, Cat. No. 15140-122); DMSO (Sigma, Cat. No. D2650); MTS Test Kit (Promega, Cat. No. G3581), 96-well plate (Corning, Cat. No. 3365).
(§3) Compound preparation: the test compound was dissolved in DMSO to make a 20 mM stock solution and stored at −20° C. It was diluted in DMSO with a 3-fold series gradient dilution for 10 times. The dilutions were diluted 4 fold with cell culture medium.
(§4) MTS cell viability assay: cells in logarithmic growth phase was digested with 0.25% trypsin-EDTA, and 150 μl of the cells was inoculated in 96-well plates at an optimized density. After 24 hours, the compound diluted 4 fold by adding the medium, 50 μl/well (generally 10 Concentrations were selected: 100, 33.3, 11.1, 3.70, 1.23, 0.412, 0.137, 0.0457, 0.0152, 0.00508 μM). A well added with the same volume of 0.5% DMSO was used as a control. After the cells were cultured for further 72 hours, the cell viability was detected with MTS.
(§5) Specific procedure: cells were adhered, the medium was discarded, and a mixture containing 20 μL MTS and 100 μL medium was added to each well. The OD490 was detected after being placed in the incubator for 1-4 hours, and the OD650 value was used as a reference. A dose-effect curve was prepared using GraphPad Prism software and IC50 was calculated.
In general terms: Tetrazolium assays rely on reduction of a dye to a coloured formazan, in cell work by metabolically active cells.

Data set [2] deals with Skin cancer cell line A431 (WT). Briefly: MTS cell viability assay, A431. Particulars: Homo sapiens, A-431, 72 hours. In kind it is cell-based. As for the experimental part: as §1, §2, §3, §4, §5
For another data set, the target named is EGFR [L858R/T790M] (Homo sapiens (Human), UniProt P00533, L858R/T790M). Briefly: EGFR [L858R/T790M] kinase assay (HTRF Kinase TK kit). It is filed as biochemical. An excerpt:
(§6) WT EGFR (Cana, Cat. No. 08-115), EGFR [L858R] (Carna, Cat. No. 08-502), EGFR [L858R/T790M] (Carna, Cat. No. 08-510), ATP (Sigma, Cat. No. A7699-1G), DMSO (Sigma, Cat. No. D2650), 96-well plate (Corning, Cat. No. 3365), 384-well plate (Greiner, Cat. No. 784076), HTRF Kinase TK Kit (Cisbio, Cat. No. 62TK0PEJ), Erlotinib (Selleckchem, Cat. No. S7787), EGFR [d746-750] (Life Technologies, Cat. No. PV6178), 5× Kinase Buffer A (Life Technologies, Cat. No. PV3186), Kinase Tracer 199 (Life Technologies, Cat. No. PV5830), LanthaScreen® Eu-anti-GST antibody (Life Technologies, Cat. No. PV5594).
(§7) Compound preparation: the test compound was dissolved in DMSO to make a 20 mM stock solution. Then, it was diluted in DMSO with a 3-fold series gradient dilution for 10 times. The dilutions were diluted 10 fold with buffer when dosing.
(§8) WT EGFR and EGFR [L858R/T790M] kinase assay: WT EGFR or EGFR [L858R/T790M] kinase was mixed with different concentrations of pre-diluted compounds for 10 minutes in 5× Kinase Buffer A in duplicate. The corresponding substrate and ATP were added and reacted at room temperature for 20 minutes (in which a negative and a positive control were set: the negative control is blank and the positive control is AZD9291). After the reaction, the detection reagent (the reagent in the HTRF Kinase TK kit) was added, and after incubation at room temperature for 30 minutes, the enzyme activity in the presence of the compounds of the present disclosure at each concentration was measured by an Evnvision microplate reader, and the inhibition of the enzyme by the compound at each concentrations were calculated. The inhibitions of the enzyme activity by the compounds at different concentrations were then fitted using Graphpad 5.0 software according to the four-parameter equation, and the IC50 values were calculated.

Another data set addresses WT EGFR (Homo sapiens (Human), UniProt P00533). Briefly: WT EGFR kinase assay (HTRF Kinase TK kit). It is filed as biochemical.
Source text: as §6, §7, §8
(In general: TR-FRET usually uses a lanthanide donor and a delayed reading to cut background.)

The subject of data set [3] is lung cancer cells HCC827 (Del19). The experiment in a line: MTS cell viability assay, HCC827. It is filed as cell-based. The conditions noted are these: Homo sapiens, 72 hours. As for the experimental part:
as §1, §2, §3, §4, §5

The subject of the next data set is EGFR mutant kinase. The conditions noted are these: cited from earlier work.
The nature of data set [4]: Pharmacokinetic experiment in rats. It is filed as in vivo, Sprague-Dawley rats. The conditions noted are these: rat; for AUC(0-t) / Cmax / Tmax / half-life / AUC(0-inf) / clearance / MRT inf / Vd / bioavailability: male, Sprague-Dawley, plasma; for AUC(0-inf): read-out: AUCINF—pred; for clearance: read-out: Cl—pred (converted); for MRT inf: read-out: MRTINF—pred; for Vd: read-out: Vz—pred; for bioavailability: PO 10 mg/kg vs IV 0.5 mg/kg. As for the experimental part:
Six male Sprague-Dawley rats, 7 to 8 weeks old, weighing approximately 210 g, were divided into 2 groups with 3 rats in each group. The pharmacokinetic differences were compared after administering to the rats a single dose of compounds through vein (in vein 0.5 mg/kg) or mouth (orally 10 mg/kg).
The rats were fed with standard feed, given water, and fasted 16 hours before the experiment. The drugs were dissolved with PEG400 and dimethyl sulfoxide. Orbital blood was collected at the time point of 0.083, 0.25, 0.5, 1, 2, 4, 6, 8, 12 and 24 hours after administration.
The rats were anesthetized for a short time after inhaling ether, and 300 μL of blood sample was collected from the orbit and put into a test tube, which contains 30 μL of 1% heparin salt solution. The test tubes were dried overnight at 60° C. prior to use. After the blood sample collection at the last time point, the rats were killed after the ether anesthesia.
Immediately after the blood sample collection, the test tubes were gently inverted at least 5 times to ensure the fully mixing and placed them on ice. The blood samples were centrifuged at 4° C., 5000 rpm for 5 minutes to separate the plasma from the red blood cells. 100 μL of plasma was pipetted into a clean plastic centrifuge tube, with the name of the compound and time point on it. The plasma was stored at −80° C. before analysis, and LC-MS/MS was used to determine the concentration of the compounds disclosed herein in plasma. Pharmacokinetic parameters were calculated based on the plasma concentrations of each animal at different time points.

Read-outs that look alike come from different tables or passages of the source.

WT EGFR, sequence (P00533 25-1210): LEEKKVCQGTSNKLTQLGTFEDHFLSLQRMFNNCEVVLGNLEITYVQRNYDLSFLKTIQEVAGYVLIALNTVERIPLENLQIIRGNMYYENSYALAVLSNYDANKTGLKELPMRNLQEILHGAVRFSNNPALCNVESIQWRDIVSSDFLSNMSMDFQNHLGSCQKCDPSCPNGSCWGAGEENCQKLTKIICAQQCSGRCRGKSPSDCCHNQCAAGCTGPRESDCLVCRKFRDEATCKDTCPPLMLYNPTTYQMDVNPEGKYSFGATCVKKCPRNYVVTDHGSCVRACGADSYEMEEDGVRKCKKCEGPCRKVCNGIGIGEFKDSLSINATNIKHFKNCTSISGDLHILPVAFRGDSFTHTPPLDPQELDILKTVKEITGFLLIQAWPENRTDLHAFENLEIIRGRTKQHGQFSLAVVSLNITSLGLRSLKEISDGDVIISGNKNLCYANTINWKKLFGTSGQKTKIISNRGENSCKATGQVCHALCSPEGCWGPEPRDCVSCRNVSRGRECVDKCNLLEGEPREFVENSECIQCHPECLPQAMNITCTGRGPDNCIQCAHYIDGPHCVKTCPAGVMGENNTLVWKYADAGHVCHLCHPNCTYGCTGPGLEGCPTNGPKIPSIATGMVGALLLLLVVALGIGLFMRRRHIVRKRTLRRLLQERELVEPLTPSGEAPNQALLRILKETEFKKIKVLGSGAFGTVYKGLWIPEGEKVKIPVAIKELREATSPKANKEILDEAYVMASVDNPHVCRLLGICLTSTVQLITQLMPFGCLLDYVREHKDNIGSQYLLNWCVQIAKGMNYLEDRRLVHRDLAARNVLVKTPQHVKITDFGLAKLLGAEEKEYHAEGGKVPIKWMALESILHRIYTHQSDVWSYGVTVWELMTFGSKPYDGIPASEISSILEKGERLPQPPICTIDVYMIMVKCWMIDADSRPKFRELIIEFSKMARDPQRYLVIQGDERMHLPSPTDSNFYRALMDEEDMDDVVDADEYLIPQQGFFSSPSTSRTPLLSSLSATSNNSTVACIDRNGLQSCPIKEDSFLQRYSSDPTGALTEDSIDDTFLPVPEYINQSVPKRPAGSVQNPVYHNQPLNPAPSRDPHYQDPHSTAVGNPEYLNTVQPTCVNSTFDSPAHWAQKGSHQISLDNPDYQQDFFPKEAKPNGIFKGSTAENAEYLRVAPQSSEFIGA
EGFR [L858R/T790M], sequence (P00533 25-1210 T790M/L858R): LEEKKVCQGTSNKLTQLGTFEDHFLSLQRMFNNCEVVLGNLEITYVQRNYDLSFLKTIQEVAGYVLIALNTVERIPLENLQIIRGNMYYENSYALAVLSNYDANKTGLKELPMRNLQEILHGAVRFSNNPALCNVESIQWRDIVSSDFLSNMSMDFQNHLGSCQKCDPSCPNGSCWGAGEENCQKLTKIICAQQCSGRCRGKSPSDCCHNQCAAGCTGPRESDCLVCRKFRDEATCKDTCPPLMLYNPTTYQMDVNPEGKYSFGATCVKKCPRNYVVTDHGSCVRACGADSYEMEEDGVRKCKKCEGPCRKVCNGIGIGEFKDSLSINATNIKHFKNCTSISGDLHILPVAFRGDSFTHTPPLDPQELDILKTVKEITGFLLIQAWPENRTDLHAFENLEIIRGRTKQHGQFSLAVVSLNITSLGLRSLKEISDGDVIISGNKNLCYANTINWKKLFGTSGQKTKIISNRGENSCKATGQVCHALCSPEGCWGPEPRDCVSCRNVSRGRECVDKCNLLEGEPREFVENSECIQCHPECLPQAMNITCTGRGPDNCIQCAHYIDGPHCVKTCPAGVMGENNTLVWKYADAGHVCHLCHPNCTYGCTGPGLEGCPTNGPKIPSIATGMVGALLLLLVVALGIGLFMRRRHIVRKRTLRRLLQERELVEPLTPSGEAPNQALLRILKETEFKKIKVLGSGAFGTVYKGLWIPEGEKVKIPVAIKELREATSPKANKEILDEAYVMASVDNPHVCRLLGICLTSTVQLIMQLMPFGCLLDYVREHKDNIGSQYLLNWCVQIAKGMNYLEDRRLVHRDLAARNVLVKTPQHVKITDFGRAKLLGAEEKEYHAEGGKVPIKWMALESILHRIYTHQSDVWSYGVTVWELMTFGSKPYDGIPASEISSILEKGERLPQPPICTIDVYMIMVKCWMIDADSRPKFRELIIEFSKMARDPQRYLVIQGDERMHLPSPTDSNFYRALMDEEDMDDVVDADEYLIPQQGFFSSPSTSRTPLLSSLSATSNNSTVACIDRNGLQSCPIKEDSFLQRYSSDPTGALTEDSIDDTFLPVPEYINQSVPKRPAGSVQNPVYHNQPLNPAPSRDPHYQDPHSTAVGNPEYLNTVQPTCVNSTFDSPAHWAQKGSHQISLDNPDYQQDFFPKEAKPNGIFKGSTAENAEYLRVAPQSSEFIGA

As to `[2H]C([2H])([2H])N(Cc1cn(-c2ccnc(Nc3cc(NC(=O)C=C)c(N4CCOCC4)cc3OC)n2)nc1-c1ccccc1)C([2H])([2H])[2H]` [Compound T-4, N-(5-((4-(4-((bis(methyl-d3)amino)methyl)-3-phenyl-1H-pyrazol-1-yl)pyrimidin-2-yl)amino)-4-methoxy-2-morpholinophenyl)acrylamide], the IC50 is 5.02 nM in data set [1]; 200 to 450 nM in data set [2]; less than 0.3 nM against EGFR [L858R/T790M]; less than 2 nM at WT EGFR; 2.5 nM in data set [3].
In data set [1], `C=CC(=O)Nc1cc(Nc2nccc(-n3cc(CN(C)C)c(-c4ccccc4)n3)n2)c(OC)cc1N1CCOCC1` [Compound T-0, reference compound] displayed an IC50 of 4.7 nM. The compound further returned an IC50 in data set [2] of 200 to 450 nM. Besides, the IC50 on EGFR [L858R/T790M] was less than 0.3 nM. Also, in the data set with EGFR mutant kinase, the “inhibitory activity against EGFR mutant kinase (in words)” value is reported as “significant inhibitory activity”. Also, the IC50 at WT EGFR was less than 2 nM. In data set [4] (IV 0.5 mg/kg single dose), the AUC(0-t) amounted to 477 ng·h/mL, the peak level (Cmax) was 323 ng/mL, the time of peak concentration (Tmax) came out at 0.08 h and the half-life was 3.78 h. Besides, in data set [4] (IV 0.5 mg/kg single dose), the AUC(0-inf) is 498 ng·h/mL, the clearance was 17.5 mL/min/kg, the MRT inf came out at 2.95 h and the Vd was 5.73 L/kg. In data set [4] (PO 10 mg/kg single dose), the AUC(0-t) was found to be 1600 ng·h/mL, the Cmax was found to be 115 ng/mL, the time to peak (Tmax) came out at 1.33 h and the half-life was 7.55 h. Also, in data set [4] (PO 10 mg/kg single dose), the AUC(0-inf) is 1800 ng·h/mL, the MRT inf amounted to 9.19 h, the “Cl—pred” value came to 94.2 mL/min/kg and the “Vz—pred” value turned out to be 61.56 L/kg. In data set [4], this compound came in with a bioavailability of 16.7%. In data set [3], this compound displayed an IC50 of 4.2 nM.
For the compound `[2H]C([2H])([2H])Oc1cc(N2CCOCC2)c(NC(=O)C=C)cc1Nc1nccc(-n2cc(CN(C)C)c(-c3ccccc3)n2)n1` [Compound T-3, N-(5-((4-(4-((dimethylamino)methyl)-3-phenyl-1H-pyrazol-1-yl)pyrimidin-2-yl)amino)-4-(methoxy-d3)-2-morpholinophenyl)acrylamide], the midpoint of inhibition in data set [1], the IC50, lay at 4.53 nM. For the same compound, in data set [2], the IC50 lay in the range of 200 to 450 nM. The IC50 at EGFR [L858R/T790M] was less than 0.3 nM. The compound also returned a 50% inhibitory concentration (IC50) on WT EGFR of less than 2 nM. In addition, in data set [4] (IV 0.5 mg/kg single dose), the AUC(0-t) worked out at 436 ng·h/mL, the highest concentration (Cmax) is 299 ng/mL, the Tmax came to 0.08 h and the half-life was 3.56 h. Moreover, in data set [4] (IV 0.5 mg/kg single dose), the AUC(0-inf) is 456 ng·h/mL, the clearance was 18.5 mL/min/kg, the MRT inf stood at 3.34 h and the Vd was determined as 5.71 L/kg. Moreover, in data set [4] (PO 10 mg/kg single dose), the AUC(0-t) was determined as 1650 ng·h/mL, the Cmax came to 120 ng/mL, the time of peak concentration (Tmax) amounted to 4 h and the half-life is 7.48 h. Moreover, in data set [4] (PO 10 mg/kg single dose), the AUC(0-inf) worked out at 1920 ng·h/mL, the MRT inf was 8.67 h, the “Cl—pred” value amounted to 88 mL/min/kg and the “Vz—pred” value was determined as 56.99 L/kg. The compound further gave a bioavailability in data set [4] of 18.9%. In data set [4] (orally), the “Cmax, AUClast and oral availability (F %) compared with compound T-0 (in words)” value is listed as “better metabolic parameters”. For the same compound, the IC50 in data set [3] is 2.27 nM.
Turning to `[2H]c1c([2H])c([2H])c(-c2nn(-c3ccnc(Nc4cc(NC(=O)C=C)c(N5CCOCC5)cc4OC)n3)cc2CN(C([2H])([2H])[2H])C([2H])([2H])[2H])c([2H])c1[2H]` [Compound T-6, N-(5-((4-(4-((bis(methyl-d3)amino)methyl)-3-(phenyl-d5)-1H-pyrazol-1-yl)pyrimidin-2-yl)amino)-4-methoxy-2-morpholinophenyl)acrylamide], the IC50 in data set [1] is 4.23 nM; in data set [2], 200 to 450 nM; on EGFR [L858R/T790M], less than 0.3 nM; at WT EGFR it was less than 2 nM; in data set [3] it was 2 nM.
On the same counts, the results for `[2H]c1c(C([2H])([2H])N(C)C)c(-c2ccccc2)nn1-c1ccnc(Nc2cc(NC(=O)C=C)c(N3CCOCC3)cc2OC)n1` [Compound T-1, N-(5-((4-(4-((dimethylamino)methyl-d2)-3-phenyl-1H-pyrazol-1-yl-5-d)pyrimidin-2-yl)amino)-4-methoxy-2-morpholinophenyl)acrylamide] are 3.62 nM, 200 to 450 nM, less than 0.3 nM, less than 2 nM and 1.56 nM.
As to `[2H]c1c([2H])c([2H])c(-c2nn(-c3ccnc(Nc4cc(NC(=O)C=C)c(N5CCOCC5)cc4OC)n3)cc2CN(C)C)c([2H])c1[2H]` [Compound T-2, N-(5-((4-(4-((dimethylamino)methyl)-3-(phenyl-d5)-1H-pyrazol-1-yl)pyrimidin-2-yl)amino)-4-methoxy-2-morpholinophenyl)acrylamide], the IC50 was 3.57 nM in data set [1]; 200 to 450 nM in data set [2]; less than 0.3 nM against EGFR [L858R/T790M]; less than 2 nM against WT EGFR; 1.98 nM in data set [3].

Usually IC50 stands for the concentration that inhibits the measured activity by half. What is called AUC(0-t) is exposure summed from dosing to a finite time, without extrapolation to infinity. A higher AUC(0-t) goes with more exposure. The Cmax is the highest concentration seen after dosing. Usually Tmax stands for the time from dosing to the highest level. By half-life is commonly meant the time in which the quantity being followed falls by half. The bioavailability is dose-corrected exposure relative to a reference, in per cent.
